# How the values were obtained:
# [1] = Pharmacokinetic experiment on rats; type: in vivo, SD rats; settings: male, Sprague-Dawley, rat, plasma; Intravenous Injection into Rats (1 mg/kg)
# Description: 3 male SD rats, each weighing 180 to 240 g, were fasted overnight with water access. A 1 mL/kg solution of the compound was formulated with 10% DMA, 20% solutol HS-15 (30%, w/v) and 70% physiological saline. Blood was sampled before administration and 2 min, 4 min, 8 min, 12 min, 15 min, 30 min, 1 h, 1.5 h and 2 h after administration. Blood samples were centrifuged at 5500 rpm for 10 min, and plasma was collected and stored at −40° C. 10 μl rat plasma from each time point was added to a 200 μl acetonitrile solution containing an internal standard and mixed, followed by 1-min vortexing and 18-min centrifugation at 3700 rpm. Then 70 μl supernatant was mixed with 70 μl water, and 10 μl of the mixture was analyzed by LC-MS/MS. Major pharmacokinetic parameters were subjected to a non-compartment analysis with the software WinNonlin 6.3.
# [2] = tested on: ICR mice; experiment: Righting reflex experiment on mice; settings: for ED50: Mus musculus, iv; for Anesthesia induction time / Anesthesia maintenance time: intravenous injection; for Anesthesia induction time: end of administration until loss of righting reflex; for Anesthesia maintenance time: loss until recovery of righting reflex; for HD7: dose required to cause a 7-min anesthesia; for SI: safety index, LD5/ED95, mice; for TI: therapeutic index, LD50/ED50, mice
# Description: (§1) LD5 (5% lethal dose): dose required to cause 5% of mice to die in a test.
# (§2) If a normal animal was able to immediately turn its body to normal upright position after being pushed over or made lying on its back, such a reflex was determined as the righting reflex. Otherwise, loss of the righting reflex and the time of loss were recorded, and a reflex recovery time was recorded when the animal restored the righting reflex. The period from finishing of drug administration until loss of the righting reflex was recorded as the anesthesia induction time, and the period from loss of the righting reflex until recovery of the righting reflex was recorded as the anesthesia maintenance time.
# (§3) TI (therapeutic index, i.e. LD50/ED50), SI (safety index, i.e. LD5/ED95).
# (§4) MTD (maximum tolerated dose): the maximum dose able to cause 100% to loss the righting index without death.
# (§5) Indicators such as median effective dose (ED50), median lethal dose (LD50), therapeutic index (TI, i.e. LD50/ED50), safety index (SI, i.e. LD5/ED95), anesthesia induction time, anesthesia maintenance time, and maximum tolerated dose (MTD) were used to evaluate the effect and safety of anesthesia. […] After adapting to the laboratory environment, laboratory animals were fasted for 12 hours. On the next day, administration was carried out at 10 mg/kg body weight. Upon intravenous injection, the time of loss of the righting reflex was recorded. The period from finishing of drug administration until loss of the righting reflex was recorded as the anesthesia induction time, and the period from loss of the righting reflex until recovery of the righting reflex was recorded as the anesthesia maintenance time. The anesthesia induction time and the anesthesia maintenance time were used to indicate how strong an anesthetic effect was. Meanwhile, the dose required to cause a 7-min anesthesia (HD7) was measured and used to evaluate relative efficacy.
# [3] = Righting reflex experiment on mice; settings: both, ICR, mouse, in vivo; for MTD: intravenous; for LD50: iv
# Description: as §1, §2, §3, §4, §5
SMILES,AUC(0-t) [1] [ng·h/mL],clearance [1] [mL/min/kg],half-life [1] [min],ED50 [2] [mg/kg],Anesthesia induction time ([2]; mice) [s],Anesthesia maintenance time ([2]; mice) [s],HD7 ([2]; mice) [mg/kg],SI [2],TI [2],MTD [3] [mg/kg],LD50 [3] [mg/kg],"MTD ([2]; mice, maximum dose causing 100% loss of righting reflex without death) [mg/kg]"
"CC[C@H](C)c1cccc([C@@H](C)C2CC2)c1O [Compound 28, 2-[(1S)-1-cyclopropylethyl]-6-[(1S)-1-methylpropyl]phenol]",143,115,18,5.3,<15.0,885.9,8.0,3.0,6.9,15,36.8,–
"CC[C@@H](C)c1cccc([C@H](C)C2CC2)c1O [Compound 26, 2-[(1R)-1-cyclopropylethyl]-6-[(1R)-1-methylpropyl]phenol]",124,134,30,1.3,<15.0,690.0,2.5,2.4,6.4,4,8.3,–
"CC(c1cccc(C(C)C2CC2)c1O)C1CC1 (stereo not drawn) [Compound 13, 2,6-bis(1-cyclopropylethyl)phenol]",187,87.5,12,3.6,<15.0,554.4,7.0,3.0,5.5,–,20,10.0
"COc1cccc(C(C)C2CC2)c1O (stereo not drawn) [Compound 8, 2-(1-cyclopropylethyl)-6-methoxy-phenol]",132,119,48,7.3,<15.0,394.8,–,7.0,9.1,40,67,–
"C[C@@H](c1cccc([C@H](C)C2CC2)c1O)C1CC1 [Compound 18, 2,6-bis[(1R)-1-cyclopropylethyl]phenol]",–,–,–,5.8,<15.0,1031.6,2.5,3.5,7.5,20,43.6,–
"C[C@H](c1cccc([C@H](C)C2CC2)c1O)C1CC1 [Compound 19, 2-[(1S)-1-cyclopropylethyl]-6-[(1R)-1-cyclopropylethyl]phenol]",–,–,–,1.5,<15.0,754.4,–,3.8,4.1,5,6.3,–
"CC[C@H](C)c1cccc([C@H](C)C2CC2)c1O [Compound 25, 2-[(1R)-1-cyclopropylethyl]-6-[(1S)-1-methylpropyl]phenol]",78.1,208,24,2,<15.0,1048.0,4.0,4.6,7.1,10,14.3,–
"CC[C@@H](C)c1cccc([C@@H](C)C2CC2)c1O [Compound 29, 2-[(1S)-1-cyclopropylethyl]-6-[(1R)-1-methylpropyl]phenol]",114,145,24,10.1,<15.0,1149.5,–,3.7,6.4,40,65.4,–
"CC(C)c1cccc(C(C)C2CC2)c1O (stereo not drawn) [Compound 3, 2-(1-cyclopropylethyl)-6-isopropylphenol]",–,–,–,3.7,<15.0,660.4,6.0,1.7,6.1,10,22.7,–

# From patent publication US9517988B2 (Sichuan Haisco Pharmaceutical Co., Ltd., priority 2013, dated 2016)
